# From PubChem BioAssay (NCI)
#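 Abbreviation: GI50, concentration required for 50% inhibition of growth. Definition used: TGI = concentration required for complete inhibition of growth.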
# Legend:
# Assay in all cases: growth of human tumour cells (NCI), 384-well format
# UACC-257 melanoma = system: UACC-257 melanoma
# BT-549 breast = system: BT-549 breast
# SK-MEL-28 melanoma = system: SK-MEL-28 melanoma
# MDA-MB-468 breast = system: MDA-MB-468 breast
# DU-145 prostate = system: DU-145 prostate
# K-562 leukemia = system: K-562 leukemia
# HS 578T breast = system: HS 578T breast
# LOX IMVI melanoma = system: LOX IMVI melanoma
# SF-268 CNS = system: SF-268 CNS
# RPMI-8226 leukemia = system: RPMI-8226 leukemia
# SW-620 colon = system: SW-620 colon
# MCF7 breast = system: MCF7 breast
# NCI-H522 lung = system: NCI-H522 lung
# 786-0 renal = system: 786-0 renal
# NCI-H226 lung = system: NCI-H226 lung
# HOP-92 NSCLC = system: HOP-92 NSCLC
# UACC-62 melanoma = system: UACC-62 melanoma
# UO-31 renal = system: UO-31 renal
# M14 melanoma = system: M14 melanoma
# HCC-2998 colon = system: HCC-2998 colon
# NCI-H460 NSCLC = system: NCI-H460 NSCLC
# CCRF-CEM leukemia = system: CCRF-CEM leukemia
# COLO 205 colon = system: COLO 205 colon
# SNB-19 CNS = system: SNB-19 CNS
# U251 glioblastoma = system: U251 glioblastoma
# KM12 colon = system: KM12 colon
# SN12C renal = system: SN12C renal
# SNB-75 CNS = system: SNB-75 CNS
# HL-60(TB) leukemia = system: HL-60(TB) leukemia
# CAKI-1 renal = system: CAKI-1 renal
# RXF 393 renal = system: RXF 393 renal
# SK-OV-3 ovarian = system: SK-OV-3 ovarian
# NCI/ADR-RES ovarian = system: NCI/ADR-RES ovarian
# SF-295 CNS = system: SF-295 CNS
# IGROV1 ovarian = system: IGROV1 ovarian
# SF-539 CNS = system: SF-539 CNS
# OVCAR-8 ovarian = system: OVCAR-8 ovarian
# TK-10 renal = system: TK-10 renal
# OVCAR-3 ovarian = system: OVCAR-3 ovarian
# NCI-H322M lung = system: NCI-H322M lung
# ACHN renal = system: ACHN renal
# OVCAR-5 ovarian = system: OVCAR-5 ovarian
# HOP-62 NSCLC = system: HOP-62 NSCLC
# EKVX NSCLC = system: EKVX NSCLC
# A498 renal = system: A498 renal
# NCI-H23 lung = system: NCI-H23 lung
# SK-MEL-5 melanoma = system: SK-MEL-5 melanoma
# PC-3 prostate = system: PC-3 prostate
# MOLT-4 leukemia = system: MOLT-4 leukemia
# HT29 colon = system: HT29 colon
# MALME-3M melanoma = system: MALME-3M melanoma
# A549 NSCLC = system: A549 NSCLC
# HCT-15 colon = system: HCT-15 colon
# T-47D breast = system: T-47D breast
# MDA-MB-231 breast = system: MDA-MB-231 breast
# HCT-116 colon = system: HCT-116 colon
# OVCAR-4 ovarian = system: OVCAR-4 ovarian
# MDA-MB-435 melanoma = system: MDA-MB-435 melanoma
smiles,measurement,setting,value
COc1cc2cc(C(=O)CCC(=O)O)sc2cc1OC,GI50,UACC-257 melanoma,> 100 µM
same,TGI,UACC-257 melanoma,> 100 µM
same,GI50,BT-549 breast,> 100 µM
same,TGI,BT-549 breast,> 100 µM
same,GI50,SK-MEL-28 melanoma,> 100 µM
same,TGI,SK-MEL-28 melanoma,> 100 µM
same,GI50,MDA-MB-468 breast,> 100 µM
same,TGI,MDA-MB-468 breast,> 100 µM
same,GI50,DU-145 prostate,> 100 µM
same,TGI,DU-145 prostate,> 100 µM
same,GI50,K-562 leukemia,> 100 µM
same,TGI,K-562 leukemia,> 100 µM
same,GI50,HS 578T breast,> 100 µM
same,TGI,HS 578T breast,> 100 µM
same,GI50,LOX IMVI melanoma,> 100 µM
same,TGI,LOX IMVI melanoma,> 100 µM
same,GI50,SF-268 CNS,> 100 µM
same,TGI,SF-268 CNS,> 100 µM
same,GI50,RPMI-8226 leukemia,> 100 µM
same,TGI,RPMI-8226 leukemia,> 100 µM
same,GI50,SW-620 colon,> 100 µM
same,TGI,SW-620 colon,> 100 µM
same,GI50,MCF7 breast,> 100 µM
same,TGI,MCF7 breast,> 100 µM
same,GI50,NCI-H522 lung,> 100 µM
same,TGI,NCI-H522 lung,> 100 µM
same,GI50,786-0 renal,> 100 µM
same,TGI,786-0 renal,> 100 µM
same,GI50,NCI-H226 lung,19.5 µM
same,TGI,NCI-H226 lung,74.4 µM
same,GI50,HOP-92 NSCLC,> 100 µM
same,TGI,HOP-92 NSCLC,> 100 µM
same,GI50,UACC-62 melanoma,> 100 µM
same,TGI,UACC-62 melanoma,> 100 µM
same,GI50,UO-31 renal,> 100 µM
same,TGI,UO-31 renal,> 100 µM
same,GI50,M14 melanoma,> 100 µM
same,TGI,M14 melanoma,> 100 µM
same,GI50,HCC-2998 colon,> 100 µM
same,TGI,HCC-2998 colon,> 100 µM
same,GI50,NCI-H460 NSCLC,> 100 µM
same,TGI,NCI-H460 NSCLC,> 100 µM
same,GI50,CCRF-CEM leukemia,> 100 µM
same,TGI,CCRF-CEM leukemia,> 100 µM
same,GI50,COLO 205 colon,> 100 µM
same,TGI,COLO 205 colon,> 100 µM
same,GI50,SNB-19 CNS,> 100 µM
same,TGI,SNB-19 CNS,> 100 µM
same,GI50,U251 glioblastoma,> 100 µM
same,TGI,U251 glioblastoma,> 100 µM
same,GI50,KM12 colon,> 100 µM
same,TGI,KM12 colon,> 100 µM
same,GI50,SN12C renal,> 100 µM
same,TGI,SN12C renal,> 100 µM
same,GI50,SNB-75 CNS,> 100 µM
same,TGI,SNB-75 CNS,> 100 µM
same,GI50,HL-60(TB) leukemia,22.7 µM
same,TGI,HL-60(TB) leukemia,45.8 µM
same,GI50,CAKI-1 renal,> 100 µM
same,TGI,CAKI-1 renal,> 100 µM
same,GI50,RXF 393 renal,25 µM
same,TGI,RXF 393 renal,> 100 µM
same,GI50,SK-OV-3 ovarian,> 100 µM
same,TGI,SK-OV-3 ovarian,> 100 µM
same,GI50,NCI/ADR-RES ovarian,> 100 µM
same,TGI,NCI/ADR-RES ovarian,> 100 µM
same,GI50,SF-295 CNS,> 100 µM
same,TGI,SF-295 CNS,> 100 µM
same,GI50,IGROV1 ovarian,> 100 µM
same,TGI,IGROV1 ovarian,> 100 µM
same,GI50,SF-539 CNS,> 100 µM
same,TGI,SF-539 CNS,> 100 µM
same,GI50,OVCAR-8 ovarian,> 100 µM
same,TGI,OVCAR-8 ovarian,> 100 µM
same,GI50,TK-10 renal,> 100 µM
same,TGI,TK-10 renal,> 100 µM
same,GI50,OVCAR-3 ovarian,> 100 µM
same,TGI,OVCAR-3 ovarian,> 100 µM
same,GI50,NCI-H322M lung,> 100 µM
same,TGI,NCI-H322M lung,> 100 µM
same,GI50,ACHN renal,> 100 µM
same,TGI,ACHN renal,> 100 µM
same,GI50,OVCAR-5 ovarian,> 100 µM
same,TGI,OVCAR-5 ovarian,> 100 µM
same,GI50,HOP-62 NSCLC,> 100 µM
same,TGI,HOP-62 NSCLC,> 100 µM
same,GI50,EKVX NSCLC,> 100 µM
same,TGI,EKVX NSCLC,> 100 µM
same,GI50,A498 renal,33.6 µM
same,TGI,A498 renal,> 100 µM
same,GI50,NCI-H23 lung,> 100 µM
same,TGI,NCI-H23 lung,> 100 µM
same,GI50,SK-MEL-5 melanoma,> 100 µM
same,TGI,SK-MEL-5 melanoma,> 100 µM
same,GI50,PC-3 prostate,> 100 µM
same,TGI,PC-3 prostate,> 100 µM
same,GI50,MOLT-4 leukemia,> 100 µM
same,TGI,MOLT-4 leukemia,> 100 µM
same,GI50,HT29 colon,> 100 µM
same,TGI,HT29 colon,> 100 µM
same,GI50,MALME-3M melanoma,> 100 µM
same,TGI,MALME-3M melanoma,> 100 µM
same,GI50,A549 NSCLC,> 100 µM
same,TGI,A549 NSCLC,> 100 µM
same,GI50,HCT-15 colon,> 100 µM
same,TGI,HCT-15 colon,> 100 µM
same,GI50,T-47D breast,> 100 µM
same,TGI,T-47D breast,> 100 µM
same,GI50,MDA-MB-231 breast,> 100 µM
same,TGI,MDA-MB-231 breast,> 100 µM
same,GI50,HCT-116 colon,> 100 µM
same,TGI,HCT-116 colon,> 100 µM
same,GI50,OVCAR-4 ovarian,> 100 µM
same,TGI,OVCAR-4 ovarian,> 100 µM
same,GI50,MDA-MB-435 melanoma,> 100 µM
same,TGI,MDA-MB-435 melanoma,> 100 µM
